Measurements taken from US20130116263A1, “PAK INHIBITORS FOR THE TREATMENT OF CELL PROLIFERATIVE DISORDERS” (AFRAXIS, INC., priority 2011, published 2013).

Experiments:
Format in all cases: biochemical
PAK3 = PAK3 (Homo sapiens, UniProt O75914); assay: In vitro PAK inhibition assay (Z'-LYTE, SelectScreen), PAK3; conditions: read-out: PAK3 IC50
Description: (§1) Compounds are screened in 1% DMSO (final) in the well. For 10 point titrations, 3-fold serial dilutions are conducted. All Peptide/Kinase Mixtures are diluted to a 2× working concentration in the appropriate Kinase Buffer
The 2×PAK3/Ser/Thr 20 mixture is prepared in 50 mM HEPES pH 7.5, 0.01% BRIJ-35, 10 mM MgCl2, 1 mM EGTA.
(§2) 1. Add the following solutions to a well in a 384-well plate: • 2.5 μL of 4× Test Compound OR (100 nL 100× Test Compound plus 2.4 μL kinase buffer) • 5 μL of 2× Peptide/Kinase (PAK) Mixture • 2.5 μL of 4×ATP Solution
(§3) 3. Incubate the PAK Kinase Reaction at room temperature for 60-minutes
(§4) 4. Add 5 μL of Development Reagent Solution to each well
(§5) 6. Incubate the Development Reaction for 60-minutes
(§6) 7. Determine the fluorescence using a fluorescence plate reader
(§7) SelectScreen® Kinase Profiling Service uses XLfit from IDBS.
(§8) The representative IC50 value with a known inhibitor for each kinase was determined at the ATP bin nearest to the ATP Km app.

PAK1 = PAK1 (Homo sapiens, UniProt Q13153); assay: In vitro PAK inhibition assay (Z'-LYTE, SelectScreen), PAK1; conditions: read-out: PAK1 IC50
Chain of PAK1 (Q13153 whole entry): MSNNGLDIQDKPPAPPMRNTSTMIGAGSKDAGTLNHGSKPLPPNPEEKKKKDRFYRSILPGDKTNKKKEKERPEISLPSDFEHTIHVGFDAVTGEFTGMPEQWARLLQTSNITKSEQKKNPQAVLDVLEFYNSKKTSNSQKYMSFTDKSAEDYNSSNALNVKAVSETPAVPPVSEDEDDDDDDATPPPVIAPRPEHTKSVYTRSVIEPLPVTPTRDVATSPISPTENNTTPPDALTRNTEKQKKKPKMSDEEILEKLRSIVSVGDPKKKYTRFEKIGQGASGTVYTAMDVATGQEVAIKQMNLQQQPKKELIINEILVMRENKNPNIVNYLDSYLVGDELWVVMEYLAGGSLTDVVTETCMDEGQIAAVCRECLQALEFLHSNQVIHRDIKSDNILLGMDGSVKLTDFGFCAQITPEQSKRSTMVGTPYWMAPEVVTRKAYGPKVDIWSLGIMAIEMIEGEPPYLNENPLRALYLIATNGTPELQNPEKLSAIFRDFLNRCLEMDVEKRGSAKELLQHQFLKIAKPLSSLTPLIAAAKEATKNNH
Description: as §1
The 2×PAK1/Ser/Thr 19 mixture is prepared in 50 mM HEPES pH 7.5, 0.01% BRIJ-35, 10 mM MgCl2, 1 mM EGTA.
as §2, §3, §4, §5, §6, §7, §8

PAK4 = PAK4 (Homo sapiens, UniProt O96013); assay: In vitro PAK inhibition assay (Z'-LYTE, SelectScreen), PAK4
Chain of PAK4 (O96013 whole entry): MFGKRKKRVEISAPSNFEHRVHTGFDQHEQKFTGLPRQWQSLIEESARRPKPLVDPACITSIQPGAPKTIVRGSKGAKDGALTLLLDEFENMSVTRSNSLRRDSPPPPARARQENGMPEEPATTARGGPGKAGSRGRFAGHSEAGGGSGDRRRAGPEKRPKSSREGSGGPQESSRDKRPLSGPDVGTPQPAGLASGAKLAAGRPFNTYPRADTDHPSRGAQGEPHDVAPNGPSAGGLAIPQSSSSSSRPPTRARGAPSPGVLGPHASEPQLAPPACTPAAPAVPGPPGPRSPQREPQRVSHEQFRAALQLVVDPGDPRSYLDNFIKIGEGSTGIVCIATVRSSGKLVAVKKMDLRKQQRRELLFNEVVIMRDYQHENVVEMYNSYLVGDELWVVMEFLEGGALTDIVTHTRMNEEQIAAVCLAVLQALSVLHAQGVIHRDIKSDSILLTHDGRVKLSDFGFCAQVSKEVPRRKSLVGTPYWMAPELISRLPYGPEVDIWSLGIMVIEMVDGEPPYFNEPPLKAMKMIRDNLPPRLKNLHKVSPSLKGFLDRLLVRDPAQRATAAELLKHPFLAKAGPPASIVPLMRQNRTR
Description: as §1
The 2×PAK-4/Ser/Thr 20 mixture is prepared in 50 mM HEPES pH 7.5, 0.01% BRIJ-35, 10 mM MgCl2, 1 mM EGTA. The final 10 μL Kinase Reaction consists of 0.1-0.75 ng PAK-4 and 2 μM Ser/Thr 20 in 50 mM HEPES pH 7.5, 0.01% BRIJ-35, 10 mM MgCl2, 1 mM EGTA. After the 1 hour Kinase Reaction incubation, 5 μL of a 1:256 dilution of Development Reagent A is added.
as §2, §3, §4, §5, §6
SelectScreen® Kinase Profiling Service uses XLfit from IDBS. The dose response curve is curve fit to model number 205 (sigmoidal dose-response model).
The table below provides specifications and data around each kinase. The representative IC50 value with a known inhibitor for each kinase was determined at the ATP bin nearest to the ATP Km app.

PAK2 (PAK65) = PAK2 (PAK65) (Homo sapiens, UniProt Q13177); assay: In vitro PAK inhibition assay (Z'-LYTE, SelectScreen), PAK2; conditions: read-out: PAK2 IC50
Chain of PAK2 (PAK65) (Q13177 whole entry): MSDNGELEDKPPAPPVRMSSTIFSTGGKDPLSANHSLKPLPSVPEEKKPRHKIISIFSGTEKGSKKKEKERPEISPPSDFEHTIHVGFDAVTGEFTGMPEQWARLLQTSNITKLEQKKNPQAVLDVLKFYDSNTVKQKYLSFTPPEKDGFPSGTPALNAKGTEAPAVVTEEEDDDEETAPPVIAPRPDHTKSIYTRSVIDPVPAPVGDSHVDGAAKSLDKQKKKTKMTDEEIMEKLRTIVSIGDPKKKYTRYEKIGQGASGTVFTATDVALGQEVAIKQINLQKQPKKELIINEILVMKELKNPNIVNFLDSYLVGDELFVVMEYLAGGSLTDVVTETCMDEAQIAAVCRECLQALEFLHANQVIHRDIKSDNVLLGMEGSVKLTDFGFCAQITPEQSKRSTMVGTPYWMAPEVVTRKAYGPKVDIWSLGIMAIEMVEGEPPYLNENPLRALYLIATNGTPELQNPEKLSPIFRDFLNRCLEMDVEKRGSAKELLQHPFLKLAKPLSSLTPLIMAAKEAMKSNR
Description: as §1
The 2×PAK2 (PAK65)/Ser/Thr 20 mixture is prepared in 50 mM HEPES pH 7.5, 0.01% BRIJ-35, 10 mM MgCl2, 1 mM EGTA. The final 10 μL Kinase Reaction consists of 0.29-6 ng PAK2 (PAK65) and 2 μM Ser/Thr 20 in 50 mM HEPES pH 7.5, 0.01% BRIJ-35, 10 mM MgCl2, 1 mM EGTA.
as §2, §3, §4, §5, §6, §7, §8

Chain of PAK3 (O75914 1-544 isoform O75914-2): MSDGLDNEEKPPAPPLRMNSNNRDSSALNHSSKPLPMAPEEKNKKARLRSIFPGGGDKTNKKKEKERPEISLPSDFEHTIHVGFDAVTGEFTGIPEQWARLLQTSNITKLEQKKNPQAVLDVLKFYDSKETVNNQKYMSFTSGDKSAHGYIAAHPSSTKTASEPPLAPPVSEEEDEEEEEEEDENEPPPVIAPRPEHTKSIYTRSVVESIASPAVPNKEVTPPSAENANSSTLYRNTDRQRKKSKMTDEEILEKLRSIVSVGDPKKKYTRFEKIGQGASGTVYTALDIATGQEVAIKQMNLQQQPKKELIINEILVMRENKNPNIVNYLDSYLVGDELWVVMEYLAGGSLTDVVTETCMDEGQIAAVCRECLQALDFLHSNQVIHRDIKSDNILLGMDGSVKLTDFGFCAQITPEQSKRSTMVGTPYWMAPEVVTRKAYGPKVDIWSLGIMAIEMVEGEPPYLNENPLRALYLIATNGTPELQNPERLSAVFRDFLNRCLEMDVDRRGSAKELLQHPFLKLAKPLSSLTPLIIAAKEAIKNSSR

Row | SMILES | IC50 (PAK3) [nM] | IC50 (PAK1) [nM] | IC50 (PAK4) [nM] | IC50 (PAK2 (PAK65)) [nM]
1 | COCCn1c(=O)c(-c2ccc(-c3cnccn3)cc2Cl)cc2cnc(NC3CCOC3)nc21 (stereo not shown) [Example 53] | 500 to 5000 | 50 to 500 | > 5000 | 50 to 500
2 | Cc1nc(-c2ccc(-c3cc4cnc(NC5CCOCC5)nc4[nH]c3=O)c(Cl)c2)no1 [Example 11] | 50 to 500 | 50 to 500 | > 5000 | 50 to 500
3 | CCn1c(=O)c(-c2ccc(-c3cccnc3OC)cc2Cl)cc2cnc(NC3CCOCC3)nc21 [Example 52] | > 5000 | 500 to 5000 | > 5000 | > 5000
4 | COCCCn1c(=O)c(-c2ccc(-c3cncc(C)n3)cc2Cl)cc2cnc(N[C@@H]3CCOC3)nc21 [Example 64] | 50 to 500 | < 50 | > 5000 | < 50
5 | CCn1c(=O)c(-c2ccc(-c3nccnc3C)cc2Cl)cc2cnc(NC3CCCOC3)nc21 (stereo not shown) [Example 17] | 50 to 500 | 50 to 500 | > 5000 | 50 to 500
6 | Cc1cncc(-c2ccc(-c3cc4cnc(N[C@H]5CCOC5)nc4n(CCN(C)C)c3=O)c(Cl)c2)n1 [Example 103] | 500 to 5000 | 50 to 500 | > 5000 | 50 to 500
7 | CCn1c(=O)c(-c2ccc(-c3nccnc3C)cc2Cl)cc2cnc(NC3CCOCC3)nc21 [Example 2] | 50 to 500 | 50 to 500 | > 5000 | 50 to 500
8 | CCn1c(=O)c(-c2cc(C)c(-c3noc(C)n3)cc2Cl)cc2cnc(N[C@@H]3CCOC3)nc21 [Example 73] | 500 to 5000 | 500 to 5000 | > 5000 | 500 to 5000
9 | CCn1c(=O)c(-c2ccc(-c3nccnc3C)cc2Cl)cc2cnc(NC3CCOC3)nc21 (stereo not shown) [Example 15] | 50 to 500 | 50 to 500 | > 5000 | 50 to 500
10 | CCNc1ncc2cc(-c3ccc(-c4nccnc4C)cc3Cl)c(=O)n(CC)c2n1 [Example 6] | 50 to 500 | 50 to 500 | > 5000 | 50 to 500
11 | CCn1c(=O)c(-c2ccc(-c3cncc(C)n3)cc2Cl)cc2cnc(NCC3CCC(N(C)C)CC3)nc21 (stereo not shown) [Example 132] | 50 to 500 | 50 to 500 | > 5000 | 50 to 500
12 | CCn1c(=O)c(-c2ccc(-c3noc(C)n3)cc2Cl)cc2cnc(N[C@H]3CC[C@H](N)CC3)nc21 [Example 94] | 50 to 500 | 50 to 500 | > 5000 | 50 to 500
13 | Cc1cncc(-c2ccc(-c3cc4cnc(N[C@H]5CCOC5)nc4n(CCCN(C)C)c3=O)c(Cl)c2)n1 [Example 102] | 50 to 500 | < 50 | > 5000 | < 50
14 | CCn1c(=O)c(-c2ccc(-c3cncc(C)n3)cc2Cl)cc2cnc(NC3C[C@@H](C)O[C@@H](C)C3)nc21 (stereo partly shown) [Example 37] | 50 to 500 | < 50 | > 5000 | 50 to 500
15 | CCn1c(=O)c(-c2ccc(-c3ccncc3C)cc2Cl)cc2cnc(NC3CCOCC3)nc21 [Example 46] | 500 to 5000 | 500 to 5000 | > 5000 | 500 to 5000
16 | Cc1cncc(-c2ccc(-c3cc4cnc(N[C@@H]5CCOC5)nc4n(CCCN(C)C)c3=O)c(Cl)c2)n1 [Example 101] | 50 to 500 | < 50 | > 5000 | < 50
17 | CCn1c(=O)c(-c2ccc(-c3ccncc3)cc2Cl)cc2cnc(NC3CCOCC3)nc21 [Example 43] | > 5000 | 500 to 5000 | > 5000 | 500 to 5000
18 | Cc1cncc(-c2ccc(-c3cc4cnc(NCC5CC5)nc4n([C@H]4CC[C@H](N)CC4)c3=O)c(Cl)c2)n1 [Example 113] | < 50 | < 50 | 500 to 5000 | < 50
19 | Cc1cncc(-c2ccc(-c3cc4cnc(NC5CCOCC5)nc4n(Cc4ccccc4)c3=O)c(Cl)c2)n1 [Example 34] | 50 to 500 | 50 to 500 | > 5000 | < 50

Row | SMILES | IC50 (PAK3) [nM] | IC50 (PAK1) [nM] | IC50 (PAK4) [nM] | IC50 (PAK2 (PAK65)) [nM]
20 | CCn1c(=O)c(-c2ccc(-c3nccnc3C)cc2Cl)cc2cnc(NC3C[C@@H](C)O[C@@H](C)C3)nc21 (stereo partly shown) [Example 38] | 50 to 500 | < 50 | > 5000 | < 50
21 | Cc1nccnc1-c1ccc(-c2cc3cnc(NC4CCOCC4)nc3n(C)c2=O)c(Cl)c1 [Example 9] | 50 to 500 | 50 to 500 | > 5000 | 50 to 500
22 | Cc1nccnc1-c1ccc(-c2cc3cnc(NC4CCOCC4)nc3n(Cc3ccccc3C(F)(F)F)c2=O)c(Cl)c1 [Example 21] | < 50 | < 50 | > 5000 | < 50
23 | Cc1nccnc1-c1ccc(-c2cc3cnc(N[C@@H]4CCOC4)nc3n(Cc3ccncc3)c2=O)c(Cl)c1 [Example 124] | 500 to 5000 | 50 to 500 | > 5000 | 50 to 500
24 | CCn1c(=O)c(-c2ccc(-c3cccnc3O)cc2Cl)cc2cnc(NC3CCOCC3)nc21 [Example 48] | 50 to 500 | 50 to 500 | > 5000 | 50 to 500
25 | CCn1c(=O)c(-c2ccc(-c3nccnc3C)cc2Cl)cc2cnc(N[C@H]3CC[C@H](N)CC3)nc21 [Example 90, 2-(((trans-1,4)-4-aminocyclohexyl)amino)-6-(2-chloro-4-(3-methylpyrazin-2-yl)phenyl)-8-ethylpyrido[2,3-d]pyrimidin-7(8H)-one] | 50 to 500 | 50 to 500 | > 5000 | < 50
26 | CCn1c(=O)c(-c2ccc(-c3cncc(C)n3)cc2Cl)cc2cnc(NC3CNC(=O)C3)nc21 (stereo not shown) [Example 66] | 50 to 500 | 50 to 500 | > 5000 | < 50
27 | CCn1c(=O)c(-c2ccc(-c3ccnnc3)cc2Cl)cc2cnc(N[C@@H]3CCOC3)nc21 [Example 62] | > 5000 | > 5000 | > 5000 | > 5000
28 | CCn1c(=O)c(-c2ccc(-c3nccnc3C)cc2Cl)cc2cnc(NC3CCSCC3)nc21 [Example 18] | 50 to 500 | 50 to 500 | > 5000 | 50 to 500
29 | CCn1c(=O)c(-c2ccc(-c3nccnc3C)cc2Cl)cc2cnc(NCCC3CCN(C)CC3)nc21 [Example 91] | 50 to 500 | < 50 | > 5000 | < 50
30 | CCn1c(=O)c(-c2ccc(-c3nccnc3C)cc2Cl)cc2cnc(NC3CCCCC3)nc21 [Example 3] | > 5000 | > 5000 | > 5000 | 500 to 5000
31 | Cc1cncc(-c2ccc(-c3cc4cnc(NC5CCOCC5)nc4n(C4CCCC4)c3=O)c(Cl)c2)n1 [Example 89] | 50 to 500 | 50 to 500 | > 5000 | 50 to 500
32 | Cc1cnc(-c2ccc(-c3cc4cnc(NC5CCOCC5)nc4[nH]c3=O)c(Cl)c2)s1 [Example 14] | 50 to 500 | > 5000 | > 5000 | > 5000
33 | CCn1c(=O)c(-c2ccc(-c3nccnc3C)cc2Cl)cc2cnc(NC3CCNC(=O)C3)nc21 (stereo not shown) [Example 33] | 50 to 500 | 50 to 500 | > 5000 | < 50
34 | CCn1c(=O)c(-c2ccc(-c3cccnc3F)cc2Cl)cc2cnc(N[C@H]3CCOC3)nc21 [Example 41] | 50 to 500 | < 50 | > 5000 | 50 to 500
35 | CCn1c(=O)c(-c2ccc(-c3nccnc3C)cc2Cl)cc2cnc(NC3CC[S+]([O-])CC3)nc21 (stereo not shown) [Example 74] | 500 to 5000 | 50 to 500 | > 5000 | 50 to 500
36 | Cc1cncc(-c2ccc(-c3cc4cnc(N[C@H]5CCOC5)nc4n(CCN)c3=O)c(Cl)c2)n1 [Example 100] | 50 to 500 | 50 to 500 | > 5000 | < 50
37 | CCn1c(=O)c(-c2ccc(-c3cccnc3F)cc2Cl)cc2cnc(NC3CCOC3)nc21 (stereo not shown) [Example 39] | 50 to 500 | 50 to 500 | > 5000 | 50 to 500
